In PMC7763444, “Bioactive Steroids from the Red Sea Soft Coral Sinularia polydactyla” (Marine Drugs, 2020):

Key:
in vitro = conditions: human
Description: (§1) Initially, the cytotoxic activity of metabolites 3–7, 9–12, 14–20, and 22–26 was evaluated in human cancer and normal cells after 72 h of treatment. Human cervical cancer (HeLa), human breast adenocarcinoma (MCF7) cell lines, and human normal fibroblasts (BJ) were used for the screening.
(§2) In cytotoxicity assays, cancer cells were treated with six different concentrations of each tested compound for 72 h. Cells were stained with resazurin and IC50 values were calculated as previously reported [26]. Triplicates from at least three independent experiments were used.

[1] = system: HeLa (human cervical cancer cell line); assay: Cytotoxicity, resazurin assay, 72 h; conditions: read-out: Cytotoxicity (IC50) HeLa
Description: as §1
(§3) The tested compounds were dissolved in DMSO to afford 10 mM stock solutions. Human cervical carcinoma (HeLa) and human breast adenocarcinoma (MCF7) cell lines were purchased from European Collection of Authenticated Cell Cultures (ECACC, Salisbury, UK) and cultivated in Dulbecco’s Modified Eagle Medium (DMEM) (Merck, Darmstadt, Germany), as previously reported [27]. […] All cells were maintained in a humidified CO2 incubator at 37 °C using the standard trypsinization procedure twice or three times a week. […] All cells were maintained in a humidified CO2 incubator at 37 °C using the standard trypsinization procedure twice or three times a week.
as §2

[2] = system: MCF7 (human breast adenocarcinoma cell line); assay: Cytotoxicity, resazurin assay, 72 h; conditions: MCF7, 72 h, read-out: Cytotoxicity (IC50) MCF7
Description: as §1, §3, §2

[3] = system: human umbilical vein endothelial cells (HUVEC); assay: Migration scratch assay; type: cell-based; conditions: 20 µM, 20 h of treatment
Description: Subsequently, we examined whether the isolated steroids could influence angiogenesis or inflammation in vitro. […] Only non-cytotoxic concentrations in HUVECs were used for the scratch assay.
The scratch test was performed with HUVEC cells and evaluated after 20 h of treatment, as previously reported.

[4] = system: neuron-like SH-SY5Y cells; assay: Cell death in 3-NPA model, propidium iodide (PI) assay; type: cell-based, human; conditions: maximal effect at 10 µM, with 20 mM 3-NPA, 48 h
Description: In order to evaluate the potential neuroprotective effect of the compounds, neuroblastoma cell line SH-SY5Y was differentiated for 48 h and further exposed to 20 mM 3-nitropropionic acid (3-NPA) as an agent mimicking Huntington’s disease in vitro [25]. 3-NPA was used alone or in co-treatment with the tested compounds at concentrations of 0.1–10 µM. […] In general, PI as a positively charged dye is associated with an increase of cell damage or death, since it penetrates cells with cell-disrupted membranes. Within the 3-NPA model, its toxic effect was considered as 100% of the PI signal and thus reduction of cell death was determined.
N-acetylcysteine (NAC) was used as a positive control. * p compared with vehicle with 20 mM 3-NPA, # p compared with vehicle without 20 mM 3-NPA.
Cell death of SH-SY5Y cells (20,000 cells/well) was determined using the propidium iodide (PI) assay according to Stone et al. with a slight modification. […] The resulting fluorescence of 3-NPA toxin was considered as 100% cell death. In the assays, neuron-like cells were treated with the tested compounds in 0.1–10 µM concentration range for 48 h. DMSO-treated cells (≤0.1% v/v) were used as healthy controls.

[5] = Cytotoxicity, resazurin assay, 72 h; conditions: human, BJ cells (human normal fibroblasts)
Description: as §1, §2

androgen receptor (AR) = assay: AR-transcriptional reporter assay (luciferase) in 22Rv1-ARE14 cells; conditions: 24 h; for Luciferase activity (AR-mediated transcription), in words: six concentrations, already at submicromolar concentrations
Description: Therefore, we further analyzed the influence of the isolated steroids on AR-mediated transcription. […] Control cells were grown in charcoal-stripped serum medium (CSS). Cells were stimulated with either 1 nM methyltrienolone R1881 (R) or with the tested compounds in six different concentrations for 24 h in CSS. The luciferase activity was measured in the cell lysate. […] The experiment was repeated three times in triplicates.
AR-transcriptional reporter assays were performed on 22Rv1-ARE14 cells after 24 h of incubation, as previously described [22].

[6] = system: BJ (human normal fibroblasts)
Description: as §1, §2

[7] = Stability of the isolated metabolite during structure elucidation; type: physicochemical; conditions: degraded prior to the acquisition of heteronuclear NMR spectra
Excerpt: Compound 2 shared quite similar spectroscopic features with 1. In particular, all signals attributed to the steroidal nucleus, with the most prominent being the signals of the two angular methyls H3-18 and H3-19 (δH 1.09 and 0.94, respectively), the methyl at C-4 (δH 1.04), the oxymethine H-3 (δH 3.10), and the two olefinic protons H-9 and H-11 (δH 5.27 and 5.41, respectively), were also evident in the ^1H NMR spectrum of compound 2 (Table 1). The most significant difference observed was the replacement of the 1,2-disubstituted double bond in the side chain of 1 by a 1,1-disustituted double bond (δH 4.63 and 4.70) in the side chain of 2. The correlations observed in the COSY spectrum of 2 identified the relevant spin systems; however, metabolite 2 was proven unstable and degraded prior to the acquisition of heteronuclear NMR spectra. Nevertheless, the high structural similarity of 2 with compound 1 renders safe the proposed identification of 2 as (9E)-3β-hydroxy-4α,24-dimethyl-8,9-seco-5α-cholesta-9(11),24(28)-dien-8-one.

## C=C(CCC(C)C1CCC2C3=CC(O)C4(O)CC(O)CCC4(C)C3CCC21C)C(C)C (stereo not drawn) [Compound 25, 24-methyl-cholesta-7,24(28)-dien-3β,5α,6β-triol]
In vitro
  IC50 at 72 h: > 50 µM
[1]
  IC50: > 50 µM
[2]
  IC50: > 50 µM

## CC(C)[C@@H](C)/C=C/[C@@H](C)[C@H]1CC[C@@H]2[C@]1(C)CC[C@@H]1[C@@]3(C)CC[C@H](O)[C@@H](C)[C@@H]3CC[C@@]21O [Compound 6, (22E,24R)-4α,24-dimethyl-5α-cholest-22-en-3β,8β-diol]
In vitro
  IC50 at 72 h: > 50 µM
[1]
  IC50: > 50 µM
[2]
  IC50: > 50 µM

## C=C(CCC(C)C1CCC2C3CCC4C(C)C(O)CCC4(C)C3CCC12C)C(C)C (stereo not drawn) [Compound 3, 4α,24-dimethyl-5α-cholest-24(28)-en-3β-οl]
In vitro
  IC50 at 72 h: > 50 µM
[1]
  IC50: > 50 µM
[2]
  IC50: > 50 µM

## CC(C)[C@@H](C)/C=C/[C@@H](C)[C@H]1CC[C@H]2C3=C[C@@H](O)[C@@]4(O)C[C@@H](O)CC[C@]4(C)[C@H]3CC[C@]12C [Compound 26, (22E,24R)-24-methyl-cholesta-7,22-dien-3β,5α,6β-triol]
In vitro
  IC50 at 72 h: > 50 µM
[1]
  IC50: > 50 µM
[2]
  IC50: > 50 µM

## CC(=O)O[C@H]1C=C2C[C@@H](O)CC[C@]2(CO)[C@H]2CC[C@]3(C)[C@@H]([C@H](C)CCCC(C)C)CC[C@H]3[C@H]12 [Compound 23, 7β-acetoxy-cholest-5-en-3β,19-diol]
[3]
  Inhibition of HUVEC migration: partially inhibited
[4]
  Effect on cell death (PI assay), in words: significantly reduced cell death
In vitro
  IC50 at 72 h: 14.5 ± 3.9 µM
[1]
  IC50: 12 ± 1.7 µM
[2]
  IC50: 11.2 ± 0.5 µM

## C=C(CCC(C)C1CCC2C3CC=C4CC(O)CCC4(C)C3CCC12C)C(C)C (stereo not drawn) [Compound 17, 24-methyl-cholesta-5,24(28)-dien-3β-οl]
[1]
  IC50: > 50 µM
[2]
  IC50: > 50 µM
[5]
  IC50 at 72 h: > 50 µM

## C=C(CCC(C)C1CCC2C3C(OC(C)=O)C=C4CC(O)CCC4(CO)C3CCC12C)C(C)C (stereo not drawn) [Compound 22, 7β-acetoxy-24-methyl-cholesta-5,24(28)-dien-3β,19-diol]
[3]
  Inhibition of HUVEC migration: partially inhibited
[1]
  IC50: 7.5 ± 0.1 µM
[2]
  IC50: 8.9 µM
[5]
  IC50 at 72 h: 14.8 ± 5.8 µM

## C=C(C=CC(C)C1CCC2C3CC=C4CC(O)CCC4(CO)C3CCC12C)C(C)C (stereo not drawn) [Compound 20, (22E)-24-methyl-cholesta-5,22,24(28)-trien-3β,19-diol]
In vitro
  IC50 at 72 h: > 50 µM
[1]
  IC50: > 50 µM
[2]
  IC50: > 50 µM
Androgen receptor (AR)
  Concentration dependence of AR inhibition: increased inhibition of AR
  Luciferase activity (AR-mediated transcription), in words: clearly reduced luciferase activity in a dose-dependent manner

## C=C(CCC(C)C1CCC2C3CC=C4CC(O)CCC4(CO)C3CCC12C)C(C)C (stereo not drawn) [Compound 19, 24-methyl-cholesta-5,24(28)-dien-3β,19-diol]
In vitro
  IC50 at 72 h: > 50 µM
[1]
  IC50: > 50 µM
[2]
  IC50: > 50 µM

## C[C@]12CC[C@H](O)CC1=CC[C@@H]1[C@@H]2CC[C@]2(C)C(n3cnc4ccccc43)=CC[C@@H]12 [Galeterone, reference compound]
Androgen receptor (AR); 10 µM, 22Rv1-ARE14
  Inhibition of AR-regulated transcription: 22%

## CC(C)C(C)/C=C\[C@@H](C)[C@H]1CC[C@H]2[C@]3(O)CC[C@H]4[C@H](C)[C@@H](O)CC[C@]4(C)[C@H]3[C@@H](O)[C@H](O)[C@]12C (stereo partly drawn) [Compound 14, (22Z)-4α,24ξ-dimethyl-5α-cholest-22-en-3β,8β,11β,12α-tetraol]
[6]
  Cytotoxicity toward normal cells (BJ), in words: absence of cytotoxicity
In vitro
  IC50 at 72 h: > 50 µM
[1]
  IC50: > 50 µM
[2]
  IC50: 29.1 ± 5 µM

## CC(C)[C@@H](C)/C=C/[C@@H](C)[C@H]1CC[C@H]2[C@@H]3CC[C@H]4[C@H](C)[C@@H](O)CC[C@]4(C)[C@H]3CC[C@]12C [Compound 4, (22E,24R)-4α,24-dimethyl-5α-cholest-22-en-3β-ol]
In vitro
  IC50 at 72 h: > 50 µM
[1]
  IC50: > 50 µM
[2]
  IC50: > 50 µM

## C=C(CCC(C)C1CCC2C3C(O)C=C4CC(O)CCC4(C)C3CCC12C)C(C)C (stereo not drawn) [Compound 18, 24-methyl-cholesta-5,24(28)-dien-3β,7β-diol]
[6]
  Cytotoxicity toward normal cells (BJ), in words: absence of cytotoxicity
In vitro
  IC50 at 72 h: > 50 µM
[1]
  IC50: 22.6 ± 0.4 µM
[2]
  IC50: 28.6 ± 5.3 µM

## C=C(C(C)C)C(CC(C)C1CCC2C1(C)CC(O)C1C3(C)CCC(O)C(C)C3CCC21O)OC(C)=O (stereo not drawn) [Compound 12, 23ξ-acetoxy-4α,24-dimethyl-5α-cholest-24(28)-en-3β,8β,11β-triol]
[3]
  Inhibition of HUVEC migration: partially inhibited
[6]
  Cytotoxicity toward normal cells (BJ), in words: absence of cytotoxicity
In vitro
  IC50 at 72 h: > 50 µM
[1]
  IC50: 15.7 ± 2 µM
[2]
  IC50: 25.3 ± 6.5 µM
Androgen receptor (AR)
  Luciferase activity (AR-mediated transcription), in words: clearly reduced luciferase activity in a dose-dependent manner

## C=C(CCC(C)C1CCC2C3(O)CCC4C(C)C(O)CCC4(C)C3CCC12CO)C(C)C (stereo not drawn) [Compound 15, 4α,24-dimethyl-5α-cholest-24(28)-en-3β,8β,18-triol]
[6]
  Cytotoxicity toward normal cells (BJ), in words: absence of cytotoxicity
In vitro
  IC50 at 72 h: > 50 µM
[1]
  IC50: 19 ± 4.3 µM
[2]
  IC50: 18.9 ± 0.1 µM

## C=C(CCC(C)C1CCC2C3C(=O)C=C4CC(O)CCC4(CO)C3CCC12C)C(C)C (stereo not drawn) [Compound 24, 7-oxo-24-methyl-cholesta-5,24(28)-dien-3β,19-diol]
In vitro
  IC50 at 72 h: 45.9 ± 2.8 µM
[1]
  IC50: 21.4 ± 2 µM
[2]
  IC50: 31.7 ± 0.3 µM

## CC(C)[C@@H](C)/C=C/[C@@H](C)[C@H]1CC[C@H]2[C@]3(O)CC[C@H]4[C@H](C)[C@@H](O)CC[C@]4(C)[C@H]3CC[C@]12CO [Compound 16, (22E,24R)-4α,24-dimethyl-5α-cholest-22-en-3β,8β,18-triol]
In vitro
  IC50 at 72 h: 23.2 ± 1.4 µM
[1]
  IC50: 32.9 ± 5.2 µM
[2]
  IC50: 33.8 ± 1 µM
Androgen receptor (AR)
  Concentration dependence of AR inhibition: increased inhibition of AR
  Luciferase activity (AR-mediated transcription), in words: clearly reduced luciferase activity in a dose-dependent manner

## C=C(CCC(C)C1CCC2C1(C)CCC1C3(C)CCC(O)C(C)C3CCC21O)C(C)C (stereo not drawn) [Compound 5, 4α,24-dimethyl-5α-cholest-24(28)-en-3β,8β-diol]
In vitro
  IC50 at 72 h: > 50 µM
[1]
  IC50: > 50 µM
[2]
  IC50: > 50 µM

## C=C(CCC(C)C1CCC2C1(C)CC(O)C1C3(C)CCC(O)C(C)C3CCC21O)C(C)C (stereo not drawn) [Compound 9, 4α,24-dimethyl-5α-cholest-24(28)-en-3β,8β,11β-triol]
In vitro
  IC50 at 72 h: 18.3 ± 4 µM
[1]
  IC50: 25.9 ± 4.9 µM
[2]
  IC50: 36.4 ± 5.7 µM

## CC(C)[C@@H](C)/C=C/[C@@H](C)[C@H]1CC[C@@H]2[C@]1(C)C[C@H](O)[C@@H]1[C@@]3(C)CC[C@H](O)[C@@H](C)[C@@H]3CC[C@@]21O [Compound 10, (22E,24R)-4α,24-dimethyl-5α-cholest-22-en-3β,8β,11β-triol]
In vitro
  IC50 at 72 h: 4.1 ± 1.9 µM
[1]
  IC50: 32.9 ± 6.8 µM
[2]
  IC50: 32.7 ± 1.3 µM
Androgen receptor (AR)
  Concentration dependence of AR inhibition: increased inhibition of AR

## C=C(CC[C@@H](C)[C@H]1CC[C@H]2C(=O)CC[C@H]3[C@H](C)[C@@H](O)CC[C@]3(C)/C=C/C[C@]12C)C(C)C [Compound 2, (9E)-3β-hydroxy-4α,24-dimethyl-8,9-seco-5α-cholesta-9(11),24(28)-dien-8-one]
[7]
  Stability: unstable

## C=C(C(=O)CC(C)C1CCC2C1(C)CC(O)C1C3(C)CCC(O)C(C)C3CCC21O)C(C)C (stereo not drawn) [Compound 11, 23-oxo-4α,24-dimethyl-5α-cholest-24(28)-en-3β,8β,11β-triol]
[3]
  Inhibition of HUVEC migration: partially inhibited
[4]
  Effect on cell death (PI assay), in words: significantly reduced cell death
[6]
  Cytotoxicity toward normal cells (BJ), in words: absence of cytotoxicity
In vitro
  IC50 at 72 h: > 50 µM
[1]
  IC50: 18.8 ± 6.4 µM
[2]
  IC50: 21.7 ± 1.4 µM
Androgen receptor (AR); 10 µM
  Rank of AR inhibition: strongest inhibition of AR
Androgen receptor (AR)
  Luciferase activity (AR-mediated transcription), in words: clearly reduced luciferase activity in a dose-dependent manner

## C=C(C(=O)CC(C)C1CCC2C1(C)CCC1C3(C)CCC(O)C(C)C3CCC21O)C(C)C (stereo not drawn) [Compound 7, 23-oxo-4α,24-dimethyl-5α-cholest-24(28)-en-3β,8β-diol]
In vitro
  IC50 at 72 h: > 50 µM
[1]
  IC50: > 50 µM
[2]
  IC50: > 50 µM
